According to article PMC9271048, “Probing strigolactone perception mechanisms with rationally designed small-molecule agonists stimulating germination of root parasitic weeds” (Nature Communications, 2022):
Where two headings read alike, the source gives them in different places.

What was measured:
ShHTL7 [1] = target: T1, ShHTL7 (Striga hermonthica, UniProt A0A0M3PNA2); assay: ShHTL7-hydrolysis reaction analysis (HPLC); format: biochemical; conditions: authors' response to reviewer
Description: Compounds 4a, (R)- and (S)-4a, 4g-i, and rac-GR24 were dissolved in DMSO and prepared as stock solution ([…]) just before use. A 200 μL of the reaction solution consisting of PBS buffer (pH 7.3), 10 μM samples, and 10 μg recombinant ShHTL7 or its mutants was incubated at 30 °C for 30 min; with the reaction solution (200 μL) containing PBS buffer (pH 7.3) and 10 μM samples as the blank control[40],[52]. Subsequently, the reaction was terminated by adding 200 μL of methanol, and then the reaction mixture was shaken for 10 s and centrifuged at 5310 × g for 60 s. The supernatant was filtered and the remaining amount of samples was analyzed by HPLC. The relative percentages of hydrolysis were obtained by using the amount of compounds in blank control as reference.
Supplementary Fig. 11. Hydrolysis of 4a, (R)-4a, (S)-4a, 4g-i, and rac-GR24 by ShHTL7 at 30 °C for 30 min. The remaining amounts of compounds in recombinant ShHTL7 protein and buffer solution were determined by HPLC analysis. The relative percentages of hydrolysis were calculated by using the amount of compounds in the buffer as reference. The error bar indicates SD (n = 3 biologically independent experiments).
(§1) (1 picture or pasted object on this page, not shown here)

ShHTL7 [2] = target: T1, ShHTL7; assay: biochemical; format: binding
Description: We used a sensitive, high-throughput Surface plasmon resonance (SPR) method to examine the binding affinities of the 51 candidates to the recombinant ShHTL7 protein, which was immobilized on the CM5 sensor chip. rac-GR24 was used as a positive control.
The interactions of small molecules with recombinant ShHTL7 were evaluated using the Biacore T200 system (GE Healthcare, USA) at 25 °C[47]. The purified ShHTL7 protein was immobilized on a CM5 sensor chip using the standard amine coupling procedure. […] PBS-P (10 mM phosphate buffer, 2.7 mM KCl, 137 mM NaCl, 0.05% Surfactant P20) containing 0.5% DMSO was used as the running buffer. For the screening experiments, candidates with different structures at 50 μM in the running buffer were injected individually at a flow rate of 30 μL min^−1. For binding affinity studies, compounds with different concentrations in running buffer were used. During the experiments, both the contact and dissociation times were set as 1 min. Data analysis was performed using the Biacore Evaluation Software (T200 Version 2.0). The affinity values (KD) were obtained by the kinetics analysis or the steady-state affinity method.

ShHTL7 [3] = target: T1, ShHTL7; assay: Lineweaver-Burk plot analysis of ShHTL7 inhibition (YLG); format: biochemical; conditions: ShHTL7-mediated hydrolysis of YLG; no significant change of Vmax
Description: 0.1 Å width; second, the number of data points of each bin was counted; third, the density of each bin is calculated using the number of D5′C-OG-DNE2-HG data points fall in the corresponding bin being divided by the total number of the distance-distance data points; last, the Z(A,D) (shown in Equation 1) was constructed by fitting the data with the two-dimensional Gaussian function using the non-linear surface fitting methods in Origin Lab.
In this equation, Z is the conformation probability density of D5′C-OG and DNE2-HG in the calculation system. µ is the mean of the normal distribution. σ is the standard deviation.
The PPC of each system was calculated using the bivariate integration of the corresponding CPDF over the interval 1.5–3.8 Å for D5′C-OG, and 1.6–3.5 Å for DNE2-HG with Equation 2 using Matlab software (The Math Works, Natick, MA).
The final PPC value of each system was the averaged data of every 200 ns in the MD simulation.
The structure figures were analyzed by PYMOL software8.
The structures of (S)-4a were constructed and optimized by Sybyl 6.9 (Tripos Inc., St. Louis, MO).
DFT calculations of (S)-4a were performed by Gaussian 09 program package at b3lyp/6-31g(d) level9.
The results were analyzed by GaussView 5.0.
Determination of the Inhibition Model
For Lineweaver-Burk plot analysis, the competitive inhibition of ShHTL7 by compounds 1, 2g, and 2h was performed by using YLG as the substrate at 25 °C. The excitation and emission […]
Supplementary Fig. 7. Lineweaver−Burk plots for the inhibition of ShHTL7 by compounds 1 (a), 2g (b), and 2h (c). Error bar indicates SD (n = 3 biologically independent experiments).
as §1
[1] Yao, R. et al. DWARF14 is a non-canonical hormone receptor for strigolactone. Nature 536, 469– […]
[2] de Saint Germain, A. et al. An histidine covalent receptor and butenolide complex mediates strigolactone perception.
[3] […]
A: We have evaluated inhibitory kinetics of the three representative compounds 1, 2g, and 2h on ShHTL7-mediated hydrolysis of YLG. […]

ShHTL7 [4] = target: T1, ShHTL7; assay: Competitive inhibition of ShHTL7 with Yoshimulactone Green (YLG) as substrate; format: biochemical; conditions: YLG used as the substrate, means ± SD, n = 3
Description: Based on the structural feature of the lead compound 2h, we selected three regions to perform further modification (Supplementary Fig. 6), to try to further improve bioactivity. Insertion of a carbonyl group between the bicyclo[2.2.1]hept-5-en-2-yl group and the piperazine ring was detrimental to binding affinity (Supplementary Fig. 6, region A). Removal of an oxygen atom in region B was found unfavorable to binding affinity as well. Therefore, we focused on modifying the benzene ring (region C) for 2h. A series of compounds with different groups at region C was synthesized (Supplementary Scheme 1). […] As SPR just measures the binding ability, another independent assay by using Yoshimulactone Green (YLG) as the fluorescent substrate was performed to determine the half-maximal inhibitory concentration (IC50) of these compounds against ShHTL7[22].
The excitation and emission wavelengths of YLG are 480 and 520 nm, respectively. We used a fluorescence spectrophotometer (CARY Eclipse) to detect the fluorescence intensity change of YLG during the enzymatic hydrolysis assay process. All the testing compounds and YLG were dissolved in DMSO and prepared as stock solutions just before use. […] The changes of fluorescence at 520 nm of each well were recorded every 1 min for 30 min. Using the reaction mixture without adding enzyme and tested compounds as the background control. After subtracting the background hydrolysis, a linear fluorescence increase in 8 min was used for further inspection. The IC50 values were determined via fitting relative inhibition percentages with the varying concentrations of compounds in Microsoft Excel.

P. aegyptiaca seeds = assay: P. aegyptiaca seed germination assay; format: in vivo, Phelipanche aegyptiaca; conditions: for germination of P. aegyptiaca seeds, source data average: 10 μM, Fig. 1d source data, average of 3; for P. aegyptiaca germination(%): Supplementary Table 1, compounds tested at 10 μM, means ± SD, n = 3
Description: P. aegyptiaca seeds were harvested from Xinjiang province, China in 2017. The seeds were surface sterilized using 1% NaClO solution for 2 min and then washed with distilled water six times. For seed germination assay, about 20 pieces of glass fiber-filter paper discs (15 mm diameter, Whatman GF/B) were placed separately on two layers of filter papers (9 cm diameter, Whatman) in a Petri dish. Five milliliters of distilled water was added to each Petri dish to wet the papers. Approximately 40–90 sterilized seeds were spread onto each glass fiber-filter paper disc. After the seeds were conditioned in the dark at 25 °C for 4 days[48], glass fiber-filter paper discs were blotted dry on filter papers (9 cm) and transferred to the wells of 24-well cell culture plates. The testing compounds were dissolved in acetone and diluted with H2O (VH2O/Vacetone = 999/1) just before use[49]. rac-GR24 and 1‰ acetone solution were used as positive and negative controls, respectively. One hundred microliters of the test solution was added to each well of the plates, and all treatments were performed in three biological repeats. The plates were sealed and incubated in the dark at 25 °C for a week. The experiments were performed at least three times. The germinated seeds were observed by using an electronic magnifier at ×20 magnification.

T1 sequence (A0A0M3PNA2 entry or part of it): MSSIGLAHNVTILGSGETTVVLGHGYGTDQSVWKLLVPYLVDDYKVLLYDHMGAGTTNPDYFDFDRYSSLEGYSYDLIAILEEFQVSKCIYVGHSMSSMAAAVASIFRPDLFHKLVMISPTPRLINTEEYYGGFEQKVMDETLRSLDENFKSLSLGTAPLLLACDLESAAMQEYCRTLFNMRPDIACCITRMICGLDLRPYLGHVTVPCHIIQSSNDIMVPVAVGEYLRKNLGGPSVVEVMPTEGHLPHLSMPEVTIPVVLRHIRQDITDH

Compound | hydrolysis by ShHTL7 (ShHTL7 [1]) | Kd (ShHTL7 [2]) [µM] | inhibition manner (Lineweaver-Burk plot) (ShHTL7 [3]) | IC50 (ShHTL7 [4]; IC50 (Supplementary Table 1)) [µM] | germination of P. aegyptiaca seeds, source data average (P. aegyptiaca seeds) [%] | P. aegyptiaca germination(%) (P. aegyptiaca seeds) | IC50 (ShHTL7 [4]; read-out: IC50 (Supplementary Table 1)) [µM]
O=C(COc1ccc(Cl)cc1)N1CCN(CC2CC=CCC2)CC1 (stereo not shown) [2g] | could not be hydrolyzed by ShHTL7 | 1.02 ± 0.11 | in a competitive manner | – | – | – | –
Cc1ccc(OCC(=O)N2CCN(CC3CC4C=CC3C4)CC2)cc1 (stereo not shown) [2h] | – | 0.96 | in a competitive manner | 22 ± 4.97 | 25.888 | 27.4 | –
O=C(c1ccc(F)cc1)N1CCN(CC2CC=CCC2)CC1 (stereo not shown) [compound 1, (4-(cyclohex-3-en-1-ylmethyl)piperazin-1-yl)(4-fluorophenyl)methanone] | – | 13.3 ± 1.4 | in a competitive manner | – | 40.0744 | 39.4 | 15.9 ± 1.47
